Like-named read-outs stand apart in the source and are kept apart here.
System: PDE4
Test: PDE4 inhibition, scintillation proximity assay (SPA);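 for PDE4 Inhibitory Activity (concentration for the inhibition rate of 50%): A below 100 nM B 100 to below 1000 nM C 1000 nM or more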
Format: biochemical
Summary of the method: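 Compound pre-diluted 1:10 in 50 mM Tris-HCl pH 7.4, 8.3 mM MgCl2, 1.7 mM EGTA, 3 mg/mL BSA, then incubated with PDE4 and [2,8-3H]-cAMP for 120 min at room temperature. Product captured on ZnSO4-containing YSi-SPA beads for 15 min; radioactivity counted against no-enzyme blank and DMSO control.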

[1] = scintillation proximity assay (SPA), evaluated as classes A, B, C, read-out: PDE4 Inhibitory Activity (concentration for the inhibition rate of 50%)
[2] = scintillation proximity assay, class symbols, read-out: PDE4 Inhibitory Activity

CC(C)(O)c1cc(-c2cscn2)c2oc(N3CC4CCC(C3)N4)nc2c1OC(F)(F)F [Example 291, 2-(2-(3,8-Diazabicyclo[3.2.1]octan-3-yl)-7-(thiazol-4-yl)-4-(trifluoromethoxy)benzo[d]oxazol-5-yl)propan-2-ol]
IC50 [1]: < 100 nM

OC(c1cc(-c2nccs2)c2oc(N3CC4CC(C3)N4)nc2c1OC(F)(F)F)C(F)F (stereo not shown) [Example 292, 1-(2-(3,6-Diazabicyclo[3.1.1]heptan-3-yl)-7-(thiazol-2-yl)-4-(trifluoromethoxy)benzo[d]oxazol-5-yl)-2,2-difluoroethan-1-ol]
IC50 [1]: < 100 nM

OC(c1cc(-c2nccs2)c2oc(N3CC4CC(C3)N4)nc2c1OC(F)(F)F)C(F)F (stereo not shown) [Example 293, 1-(2-(3,6-Diazabicyclo[3.1.1]heptan-3-yl)-7-(thiazol-2-yl)-4-(trifluoromethoxy)benzo[d]oxazol-5-yl)-2,2-difluoroethan-1-ol]
IC50 [1]: < 100 nM

CC(C)(O)CC(F)(F)Oc1ccc(-c2nccs2)c2oc(N3CC4CC(C3)N4)nc12 [Example 295, 4-((2-(3,6-Diazabicyclo[3.1.1]heptan-3-yl)-7-(thiazol-2-yl)benzo[d]oxazol-4-yl)oxy)-4,4-difluoro-2-methylbutan-2-ol]
IC50 [1]: < 100 nM

CC(O)(c1ccc(-c2nccs2)c2oc(N3CC4CC(C3)N4)nc12)C(F)F (stereo not shown) [Example 296, 2-(2-(3,6-Diazabicyclo[3.1.1]heptan-3-yl)-7-(thiazol-2-yl)benzo[d]oxazol-4-yl)-1,1-difluoropropan-2-ol]
IC50 [1]: < 100 nM

CC(O)(c1ccc(-c2nccs2)c2oc(N3CC4CC(C3)N4)nc12)C(F)F (stereo not shown) [Example 297, 2-(2-(3,6-Diazabicyclo[3.1.1]heptan-3-yl)-7-(thiazol-2-yl)benzo[d]oxazol-4-yl)-1,1-difluoropropan-2-ol]
IC50 [1]: < 100 nM

COC(C)(C)c1cc(-c2cscn2)c2oc(N3CC4CCC(C3)N4)nc2c1OC(F)(F)F [Example 298, 2-(3,8-Diazabicyclo[3.2.1]octan-3-yl)-5-(2-methoxypropan-2-yl)-7-(thiazol-4-yl)-4-(trifluoromethoxy)benzo[d]oxazole]
IC50 [1]: < 100 nM

OC1(c2cc(-c3cscn3)c3oc(N4CC5CC(C4)N5)nc3c2OC(F)(F)F)CC1 [Example 299, 1-(2-(3,6-Diazabicyclo[3.1.1]heptan-3-yl)-7-(thiazol-4-yl)-4-(trifluoromethoxy)benzo[d]oxazol-5-yl)cyclopropan-1-ol]
IC50 [1]: < 100 nM

OC(c1cc(-c2cscn2)c2oc(N3CC4CC(C3)N4)nc2c1OC(F)(F)F)C(F)F (stereo not shown) [Example 300, 1-(2-(3,6-Diazabicyclo[3.1.1]heptan-3-yl)-7-(thiazol-4-yl)-4-(trifluoromethoxy)benzo[d]oxazol-5-yl)-2,2-difluoroethan-1-ol]
IC50 [1]: < 100 nM

OC(c1cc(-c2cscn2)c2oc(N3CC4CC(C3)N4)nc2c1OC(F)(F)F)C(F)F (stereo not shown) [Example 301, 1-(2-(3,6-Diazabicyclo[3.1.1]heptan-3-yl)-7-(thiazol-4-yl)-4-(trifluoromethoxy)benzo[d]oxazol-5-yl)-2,2-difluoroethan-1-ol]
IC50 [1]: < 100 nM

OC(c1cc(-c2cscn2)c2oc(N3CC4CCC(C3)N4)nc2c1OC(F)(F)F)C(F)F (stereo not shown) [Example 302, 1-(2-(3,8-Diazabicyclo[3.2.1]octan-3-yl)-7-(thiazol-4-yl)-4-(trifluoromethoxy)benzo[d]oxazol-5-yl)-2,2-difluoroethan-1-ol]
IC50 [1]: < 100 nM

OC(c1cc(-c2cscn2)c2oc(N3CC4CCC(C3)N4)nc2c1OC(F)(F)F)C(F)F (stereo not shown) [Example 303, 1-(2-(3,8-Diazabicyclo[3.2.1]octan-3-yl)-7-(thiazol-4-yl)-4-(trifluoromethoxy)benzo[d]oxazol-5-yl)-2,2-difluoroethan-1-ol]
IC50 [1]: < 100 nM

OC1CCC(Oc2ccc(-c3nccs3)c3oc(N4CC5CC(C4)N5)nc23)CC1 (stereo not shown) [Example 305, 4-((2-(3,6-Diazabicyclo[3.1.1]heptan-3-yl)-7-(thiazol-2-yl)benzo[d]oxazol-4-yl)oxy)cyclohexan-1-ol]
IC50 [1]: < 100 nM

CC(C)(O)C(F)(F)Oc1ccc(-c2cscn2)c2oc(N3CC4CC(C3)N4)nc12 [Example 307, 1-((2-(3,6-Diazabicyclo[3.1.1]heptan-3-yl)-7-(thiazol-4-yl)benzo[d]oxazol-4-yl)oxy)-1,1-difluoro-2-methylpropan-2-ol]
IC50 [1]: < 100 nM

CC(C)(O)C(F)(F)Oc1ccc(-c2cscn2)c2oc(N3CC4CCC(C3)N4)nc12 [Example 308, 1-((2-(3,8-Diazabicyclo[3.2.1]octan-3-yl)-7-(thiazol-4-yl)benzo[d]oxazol-4-yl)oxy)-1,1-difluoro-2-methylpropan-2-ol]
IC50 [1]: < 100 nM

CC(O)C(F)(F)Oc1ccc(-c2cscn2)c2oc(N3CC4CC(C3)N4)nc12 (stereo not shown) [Example 309, 1-((2-(3,6-Diazabicyclo[3.1.1]heptan-3-yl)-7-(thiazol-4-yl)benzo[d]oxazol-4-yl)oxy)-1,1-difluoropropan-2-ol]
IC50 [1]: < 100 nM

CC(O)C(F)(F)Oc1ccc(-c2cscn2)c2oc(N3CC4CCC(C3)N4)nc12 (stereo not shown) [Example 310, 1-((2-(3,8-Diazabicyclo[3.2.1]octan-3-yl)-7-(thiazol-4-yl)benzo[d]oxazol-4-yl)oxy)-1,1-difluoropropan-2-ol]
IC50 [1]: < 100 nM

OCC(F)(F)Oc1ccc(-c2cscn2)c2oc(N3CC4CC(C3)N4)nc12 [Example 311, 2-((2-(3,6-Diazabicyclo[3.1.1]heptan-3-yl)-7-(thiazol-4-yl)benzo[d]oxazol-4-yl)oxy)-2,2-difluoroethan-1-ol]
IC50 [1]: < 100 nM

OCC(F)(F)Oc1ccc(-c2cscn2)c2oc(N3CC4CCC(C3)N4)nc12 [Example 312, 2-((2-(3,8-Diazabicyclo[3.2.1]octan-3-yl)-7-(thiazol-4-yl)benzo[d]oxazol-4-yl)oxy)-2,2-difluoroethan-1-ol]
IC50 [1]: < 100 nM

CC(C)(O)C(Oc1ccc(-c2nccs2)c2oc(N3CC4CC(C3)N4)nc12)C(F)(F)F (stereo not shown) [Example 313, 3-((2-(3,6-Diazabicyclo[3.1.1]heptan-3-yl)-7-(thiazol-2-yl)benzo[d]oxazol-4-yl)oxy)-4,4,4-trifluoro-2-methylbutan-2-ol]
IC50 [1]: < 100 nM

O=S1(=O)CCC(Oc2ccc(-c3nccs3)c3oc(N4CC5CC(C4)N5)nc23)CC1 [Example 314, 4-((2-(3,6-Diazabicyclo[3.1.1]heptan-3-yl)-7-(thiazol-2-yl)benzo[d]oxazol-4-yl)oxy)tetrahydro-2H-thiopyran 1,1-dioxide]
IC50 [1]: < 100 nM

OCC(F)(F)Oc1ccc(-n2cccn2)c2oc(N3CC4CC(C3)N4)nc12 [Example 320, 2-((2-(3,6-Diazabicyclo[3.1.1]heptan-3-yl)-7-(1H-pyrazol-1-yl)benzo[d]oxazol-4-yl)oxy)-2,2-difluoroethan-1-ol]
IC50 [1]: < 100 nM

c1csc(-c2ccc(C3CC3)c3nc(N4CC5CC(C4)N5)oc23)n1 [Example 344, 2-(3,6-diazabicyclo [3.1.1]heptan-3-yl)-4-cyclopropyl-7-(thiazol-2-yl)benzo[d] oxazole]
IC50 [2]: < 100 nM

CSc1ccc(-c2nccs2)c2oc(N3CC4CC(C3)N4)nc12 [Example 345, 2-(3,6-diazabicyclo[3.1.1]heptan-3-yl)-4-(methylthio)-7-(thiazol-2-yl)benzo [d]oxazole]
IC50 [2]: < 100 nM

C=CC(F)(F)Oc1ccc(-c2nccs2)c2oc(N3CC4CC(C3)N4)nc12 [Example 351, 2-(3,6-diazabicyclo[3.1.1]heptan-3-yl)-4-((1,1-difluoroallyl)oxy)-7-(thiazol-2-yl)benzo[d] oxazole]
IC50 [2]: < 100 nM

O=C(NCc1ccccc1)c1ccc(-c2nccs2)c2oc(N3CC4CC(C3)N4)nc12 [Example 361, N-benzyl-2-(3,6-diazabicyclo [3.1.1]heptan-3-yl)-7-(thiazol-2-yl) benzo oxazole-4-carboxamide]
IC50 [2]: < 100 nM

CC(C)C(O)C(F)(F)Oc1ccc(-c2nccs2)c2oc(N3CC4CC(C3)N4)nc12 (stereo not shown) [Example 362, 1-((2-(3,6-diazabicyclo [3.1.1]heptan-3-yl)-7-(thiazol-2-yl)benzo[d]oxazol-4-yl)oxy)-1,1-difluoro-3-methylbutan-2-ol]
IC50 [2]: < 100 nM

O=C(O)c1ccc(-c2nccs2)c2oc(N3CC4CC(C3)N4)nc12 [Example 366, 2-(3,6-diazabicyclo [3.1.1]heptan-3-yl)-7-(thiazol-2-yl)benzo[d] oxazole-4-carboxylic acid]
IC50 [2]: 100 to 1000 nM

O=C(NO)c1ccc(-c2nccs2)c2oc(N3CC4CC(C3)N4)nc12 [Example 367, 2-(3,6-diazabicyclo[3.1.1]heptan-3-yl)-N-hydroxy-7-(thiazol-2-yl)benzo[d] oxazole-4-carboxamide]
IC50 [2]: < 100 nM

CC(C)(O)c1cc(-c2nccs2)c2oc(N3CC4CCC(C3)N4O)nc2c1OC(F)(F)F [Example 368, 3-(5-(2-hydroxy-propan-2-yl)-7-(thiazol-2-yl)-4-(trifluoromethoxy)benzo[d]oxazol-2-yl)-3,8-diazabicyclo [3.2.1]octan-8-ol]
IC50 [2]: 100 to 1000 nM

CC(C)(O)C(F)(F)Oc1ccc(-c2nccs2)c2oc(N3CC4CC(C3)N4O)nc12 [Example 371, 3-(4-(1,1-difluoro-2-hydroxy-2-methylpropoxy)-7-(thiazol-2-yl)benzo[d]oxazol-2-yl)-3,6-diazabicyclo [3.1.1]heptan-6-ol]
IC50 [2]: < 100 nM

ON1C2CCC1CN(c1nc3c(OC(F)(F)F)c(Cl)cc(-c4nccs4)c3o1)C2 [Example 375, 3-(5-chloro-7-(thiazol-2-yl)-4-(trifluoro-methoxy)benzo[d]oxazol-2-yl)-3,8-diazabicyclo[3.2.1] octan-8-ol]
IC50 [2]: < 100 nM

CC(O)(O)C(F)(F)Oc1ccc(-c2nccs2)c2oc(N3CC4CC(C3)N4)nc12 [Example 377, 1-((2-(3,6-diazabicyclo[3.1.1]heptan-3-yl)-7-(thiazol-2-yl)benzo[d]oxazol-4-yl)oxy)-1,1-difluoropropane-2,2-diol]
IC50 [2]: < 100 nM

OC(c1ccc(-c2nccs2)c2oc(N3CC4CCC(C3)N4O)nc12)C(F)(F)F (stereo not shown) [Example 378, 3-(7-(thiazol-2-yl)-4-(2,2,2-trifluoro-1-hydroxyethyl)benzo[d]oxazol-2-yl)-3,8-diazabicyclo[3.2.1] octan-8-ol]
IC50 [2]: 100 to 1000 nM
